# Assay results published in the supplement of paper PMC10307832.
# Tests used:
# Test in all cases: relative viability (nuclei count vs DMSO), 5 days (fraction); higher = more cells survive
# Wnt-C59 + Trametinib = compound: CC1=NC=CC(=C1)C2=CC=C(C=C2)CC(=O)NC3=CC=C(C=C3)C4=CN=CC=C4 [Wnt-C59] + CC(=O)Nc1cccc(-n2c(=O)n(C3CC3)c(=O)c3c(Nc4ccc(I)cc4F)n(C)c(=O)c(C)c32)c1 [Trametinib] (partner 0.02 µM)
# Outline: (§1)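 Values are medians from duplicate plates. Each reflects relative viability, defined as the nuclei count of treated wells over that of vehicle wells. Lung cancer cell lines in 1536-well plates were pin-tool dosed one day after seeding with one drug alone or with a fixed anchor-drug dose plus five library-drug doses (not always all listed) in √10 steps, then fixed, stained and imaged at 4× after 5 days.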
# Wnt-C59 + Alpelisib = compound: CC1=NC=CC(=C1)C2=CC=C(C=C2)CC(=O)NC3=CC=C(C=C3)C4=CN=CC=C4 [Wnt-C59] + Cc1nc(NC(=O)N2CCC[C@H]2C(N)=O)sc1-c1ccnc(C(C)(C)C(F)(F)F)c1 [Alpelisib] (partner 2 µM)
# Outline: as §1
# Wnt-C59 + Pemetrexed = compound: CC1=NC=CC(=C1)C2=CC=C(C=C2)CC(=O)NC3=CC=C(C=C3)C4=CN=CC=C4 [Wnt-C59] + Nc1nc2[nH]cc(CCc3ccc(C(=O)N[C@@H](CCC(=O)O)C(=O)O)cc3)c2c(=O)[nH]1 [Pemetrexed] (partner 0.2 µM)
# Outline: as §1
# Wnt-C59 + Decitabine = compound: CC1=NC=CC(=C1)C2=CC=C(C=C2)CC(=O)NC3=CC=C(C=C3)C4=CN=CC=C4 [Wnt-C59] + Nc1ncn([C@H]2C[C@H](O)[C@@H](CO)O2)c(=O)n1 [Decitabine] (partner 2 µM)
# Outline: as §1
Cell Line,relative viability (Wnt-C59 + Trametinib; first compound 0.001 µM),relative viability (Wnt-C59 + Trametinib; first compound 0.01 µM),relative viability (Wnt-C59 + Trametinib; first compound 0.03162 µM),relative viability (Wnt-C59 + Trametinib; first compound 0.1 µM),relative viability (Wnt-C59 + Alpelisib; first compound 0.001 µM),relative viability (Wnt-C59 + Alpelisib; first compound 0.01 µM),relative viability (Wnt-C59 + Alpelisib; first compound 0.03162 µM),relative viability (Wnt-C59 + Alpelisib; first compound 0.1 µM),relative viability (Wnt-C59 + Pemetrexed; first compound 0.001 µM),relative viability (Wnt-C59 + Pemetrexed; first compound 0.01 µM),relative viability (Wnt-C59 + Pemetrexed; first compound 0.03162 µM),relative viability (Wnt-C59 + Pemetrexed; first compound 0.1 µM),relative viability (Wnt-C59 + Decitabine; first compound 0.001 µM),relative viability (Wnt-C59 + Decitabine; first compound 0.01 µM),relative viability (Wnt-C59 + Decitabine; first compound 0.03162 µM),relative viability (Wnt-C59 + Decitabine; first compound 0.1 µM)
NCI-H1993,0.634,0.486,0.507,0.465,0.763,0.642,0.682,0.708,0.67,0.591,0.609,0.625,0.597,0.594,0.64,0.66
NCI-H2009,0.267,0.315,0.267,0.294,1.15,1.16,1.14,1.18,0.988,1.11,1.07,1.04,0.35,0.442,0.352,0.379
NCI-H2023,0.608,0.579,0.679,0.543,0.627,0.622,0.656,0.508,0.238,0.258,0.221,0.24,0.227,0.244,0.251,0.221
NCI-H2085,0.599,0.577,0.58,0.614,0.998,0.97,0.888,0.904,0.837,0.887,0.963,0.888,0.623,0.571,0.494,0.601
NCI-H2087,0.203,0.176,0.205,0.259,1.18,1.05,0.996,1.05,0.629,0.72,0.697,0.709,0.245,0.28,0.281,0.336
NCI-H2126,0.579,0.532,0.573,0.581,0.742,0.703,0.788,0.723,0.688,0.655,0.642,0.649,0.654,0.576,0.567,0.575
NCI-H2170,0.923,0.864,1.03,0.974,0.813,0.675,0.987,0.841,0.271,0.275,0.253,0.274,0.47,0.516,0.506,0.474
NCI-H2347,0.357,0.271,0.318,0.194,0.936,1.01,0.9,0.984,0.46,0.489,0.451,0.434,0.629,0.628,0.643,0.602
NCI-H2405,0.655,0.587,0.505,0.574,0.89,,0.646,0.789,1.02,1.01,0.989,1.08,0.793,0.756,0.786,0.656
NCI-H3122,0.18,0.243,0.207,0.218,0.836,0.784,0.872,0.716,0.219,0.216,0.197,0.195,0.453,0.477,0.476,0.385
PC-3 [JPC-3],0.78,0.736,0.623,0.785,1.02,1.05,1.04,1.07,1.11,1.24,1.04,1.47,0.853,0.847,0.849,0.841
PC-14,0.97,0.911,0.9,0.729,1.01,0.92,0.995,0.934,0.131,0.138,0.109,0.143,0.246,0.283,0.223,0.243
RERF-LC-KJ,0.936,0.884,0.962,0.753,0.743,0.764,0.853,0.883,0.483,0.497,0.45,0.495,0.711,0.727,0.742,0.735
SK-LU-1,0.561,0.506,0.533,0.422,0.996,0.992,1.08,1.05,0.969,1,1,0.973,0.657,0.675,0.694,0.657
SK-MES-1,0.61,0.556,0.511,0.518,0.841,0.909,0.833,0.965,0.92,0.982,0.986,0.827,0.386,0.403,0.366,0.355
SW 1573,0.515,0.551,0.582,0.515,0.701,0.758,0.89,0.79,0.863,0.848,0.879,0.761,0.449,0.453,0.583,0.537
